Test results as given in patent publication EP4796540A2, “N-SULFONAMIDE NITROGEN-CONTAINING FUSED HETEROCYCLIC COMPOUND, AND APPLICATION THEREOF” (priority 2023, dated 2025).
Read-outs that look alike come from different tables or passages of the source.

Tests used:
p53 Y220C mutant = assay: HTRF assay: compounds promoting the binding of p53 Y220C mutant with DNA; type: biochemical; details: His-tagged p53 Y220C (94-312), biotin-labeled DNA
Procedure: Homogeneous time-resolved fluorescence (HTRF) assay was used to measure the reactivation effect of compounds on the p53 Y220C mutant. The recombinant His-tagged p53 Y220C (94-312) used for HTRF assays was expressed in E. coli and purified to the purity of 90% through Ni-NTA column. The biotin-labeled DNA used for HTRF assays was synthesized by Pharmaron Inc, with the specific sequence of 5'-[…]-3' .
The binding of recombinant His-tagged p53 Y220C protein and biotin-labeled DNA was measured using fluorescence resonance energy transfer (FRET). For FRET assays, binding between p53 mutants and DNA sequences was measured by detecting the fluorescence of the interaction between an anti-His antibody (Cisbio, 61HI2KLA) conjugated to Eu and d2-conjugated streptavidin (Cisbio, 610SADLF) bound to a biotin-labeled DNA molecule. Compounds were prepared into 2 mM stock solutions and serially diluted into 10 concentrations at a 1:3 ratio in DMSO. Each 200-fold working concentration compound was sequentially diluted to 4-fold working concentration. 4 µL of compound solution was transferred line by line to a 384-well assay plate using Echo, containing 2 replicates per column. 4 µL of p53 solution was added to the assay plate. 4 µL of biotin DNA solution was added to the assay plate, and then 4 µL of assay solution (His-Eu antibody and streptavidin-d2) was added to each well of the assay plate. The assay plate was incubated overnight and protected from light. Fluorescence was read on BMG (BMG LRBTECH).
The ratio of each well was calculated (ratio_665 nm/615 nm-ratio_background). The activity % was calculated as follows: C = (Ave_Ac−Ave_Ba)/(Ave_Dc_Ave_Bd) [formula] R data = (A−Ave_Ba−C*D)/(D−Ave_Bd)*(Ave_Dc−Ave_Bd) [formula] Activity % = R data/Ave_VC*100. [formula] • A: fluorescence intensity of the sample at 665 nm; • D: fluorescence intensity of the sample at 615 nm; • Ba: fluorescence intensity of the plate background at 665 nm; • Bd: fluorescence intensity of the plate background at 615 nm; • Dc: fluorescence intensity of HIS-Eu background at 615 nm; • Ac: fluorescence intensity of streptavidin-d2 background at 665 nm; • VC: DMSO treatment group.
SC150 was calculated using Graphpad 8.0 to fit the logarithm of activity% and compound concentration to a nonlinear regression (dose response-variable slope). Table 1: Activity of compounds promoting the binding of p53 Y220C mutant with DNA

CYP3A4/5 enzymes = assay: Multi-concentration inhibitory activity curve of CYP3A4/5 enzymes, liver microsomes; type: in vitro ADME; details: substrate Midazolam; human liver microsomes; 10 min
Procedure: Experimental purpose: To determine the concentration inhibitory activity curve of compounds on CYP3A4/5 enzymes. • 2.
(§1) 8.71 g of K2HPO4 was dissolved in 950 mL of water. The pH was adjusted to 7.4 with HCl solution. The mixture was adjusted to a final volume of 1000 mL with water. The buffer was filtered through a 0.45 µm filter. The buffer was stored in a refrigerator at 4°C for future use. Terfenadine/tolbutamide (1 mg/mL each) stock solutions were prepared with DMSO. The above stock solution was diluted with acetonitrile to produce a quenching solution containing 5/10 ng/mL (terfenadine/tolbutamide).
Liver microsomes were thawed in a 37°C water bath prior to use. Liver microsome working solution (final system concentration of 0.5 mg/mL) was prepared. 5 mM NADPH working solution was prepared with phosphate buffered saline. The above stock solution was prepared into a 2 mM working solution with DMSO. The above stock solution was diluted with acetonitrile (4-fold dilution, 6 non-zero concentrations).
238.5 µL of liver microsome working solution was added to a 1.1 mL tube. 1.5 µL of test compound/control working solution/DMSO was added and mixed well by pipetting several times. The mixture was pre-incubated in water bath with shaking at 37°C for 5 minutes. […]
The half-maximal inhibitory concentration (IC50) was calculated using Graph Pad Prism.

CYP3A4/5 [1] = assay: Inhibition of CYP isoenzymes at a single concentration, liver microsomes; details: final compound concentration 10 µM; substrate Midazolam; human liver microsomes
Procedure: (§2) Experimental purpose: To test the inhibitory effect of compounds on CYP isoenzymes at a single concentration. • 2. Experimental instrument and reagents:
as §1
(§3) Liver microsomes were thawed in a 37°C water bath prior to use. Liver microsome working solution (final concentration of 0.5 mg/mL) was prepared. 5 mM NADPH working solution was prepared with phosphate buffered saline. The above stock solution was prepared into a 2 mM working solution with DMSO.
(§4) 238.5 µL of liver microsome working solution was added to a 1.1 mL tube. 1.5 µL of test compound/control working solution/DMSO was added and mixed well by pipetting several times. The mixture was pre-incubated in water bath with shaking at 37°C for 5 minutes. After the pre-incubation, 60 µL of NADPH working solution was added and mixed well by pipetting several times. The mixture was incubated in water bath with shaking at 37°C for 10 minutes. Immediately after incubation, 500 µL of quenching solution was added and vortexed for 1 minute. All samples were centrifuged at 4,000 rpm for 15 minutes at 4°C. 300 µL of the above supernatants were aliquoted for further LC-MS/MS analysis.
(§5) Inhibition rate (% inhibition) is calculated using metabolite formation of the test compound or the control compound compared to the matrix control.

CYP3A4/5 [2] = details: human, microsomes, 10 min, 10 µM
Procedure: as §2, §1, §3, §4, §5

SMILES | SC150 (p53 Y220C mutant) [nM] | other results
[2H]C([2H])([2H])Oc1nc(C(=O)NS(=O)(=O)CC2CC2)ccc1NCC#Cc1cc2c(N[C@@H]3CCN(C)C[C@@H]3F)cccn2c1CC(F)(F)F [Cpd-5, N-((Cyclopropylmethyl)sulfonyl)-5-((3-(8-(((3S,4R)-3-fluoro-1-methylpiperidin-4-yl)amino)-3-(2,2,2-trifluoroethyl)indolizin-2-yl)prop-2-yn-1-yl)amino)-6-(methoxy-d3)picolinamide] | 1.1 | 
CNC(=O)c1ccc(NCC#Cc2cc3c(N[C@@H]4CCN(C)C[C@@H]4F)cccn3c2CC(F)(F)F)c(OC)c1 [Cpd-C, 4-((3-(8-(((3S,4R)-3-Fluoro-1-methylpiperidin-4-yl)amino)-3-(2,2,2-trifluoroethyl)indolizin-2-yl)prop-2-yn-1-yl)amino)-3-methoxy-N-methylbenzamide] | 4.6 | IC50 (CYP3A4/5 enzymes): 3.8 µM; Inhibition rate (%) CYP3A4/5 (Midazolam) (CYP3A4/5 [1]): 79%
COc1cc(S(C)(=O)=O)ccc1NCC#Cc1nc2c(N[C@@H]3CCN(C)C[C@@H]3F)cccn2c1CC(F)(F)F [Cpd-B] | 15 | Inhibition rate (%) CYP3A4/5 (Midazolam) (CYP3A4/5 [2]): 61%; Inhibition rate (%) CYP3A4/5 (Testosterone) (CYP3A4/5 [2]): 75%
COc1nc(C(=O)NS(=O)(=O)C2CC2)ccc1NCC#Cc1cc2c(N[C@@H]3CCN(C)C[C@@H]3F)cccn2c1CC(F)(F)F [Cpd-7, N-(Cyclopropylsulfonyl)-5-((3-(8-(((3S,4R)-3-fluoro-1-methylpiperidin-4-yl)amino)-3-(2,2,2-trifluoroethyl)indolizin-2-yl)prop-2-yn-1-yl)amino)-6-methoxypicolinamide] | 0.64 | 
COc1nc(C(=O)NS(C)(=O)=O)ncc1NCC#Cc1cc2c(N[C@@H]3CCN(C)C[C@@H]3F)cccn2c1CC(F)(F)F [Cpd-3, 5-((3-(8-(((3S,4R)-3-Fluoro-1-methylpiperidin-4-yl)amino)-3-(2,2,2-trifluoroethyl)indolizin-2-yl)prop-2-yn-1-yl)amino)-4-methoxy-N-(methylsulfonyl)pyrimidine-2-carboxamide] | 0.74 | 
COc1nc(C(=O)NS(C)(=O)=O)ccc1NCC#Cc1cc2c(N[C@@H]3CCN(C)C[C@@H]3F)cccn2c1CC(F)(F)F [Cpd-1, 5-((3-(8-(((3S,4R)-3-Fluoro-1-methylpiperidin-4-yl)amino)-3-(2,2,2-trifluoroethyl)indolizin-2-yl)prop-2-yn-1-yl)amino)-6-methoxy-N-(methylsulfonyl)picolinamide] | 1.0 | 
[2H]C([2H])([2H])Oc1nc(C(=O)NS(=O)(=O)CC(F)(F)F)ccc1NCC#Cc1cc2c(N[C@@H]3CCN(C)C[C@@H]3F)cccn2c1CC(F)(F)F [Cpd-6, 5-((3-(8-(((3S,4R)-3-Fluoro-1-methylpiperidin-4-yl)amino)-3-(2,2,2-trifluoroethyl)indolizin-2-yl)prop-2-yn-1-yl)amino)-6-(methoxy-d3)-N-((2,2,2-trifluoroethyl)sulfonyl)picolinamide] | 1.7 | 
[2H]C([2H])([2H])Oc1nc(C(=O)NS(=O)(=O)C2CC2)ccc1NCC#Cc1cc2c(N[C@@H]3CCN(C)C[C@@H]3F)cccn2c1CC(F)(F)F [Cpd-4, N-(Cyclopropylsulfonyl)-5-((3-(8-(((3S,4R)-3-fluoro-1-methylpiperidin-4-yl)amino)-3-(2,2,2-trifluoroethyl)indolizin-2-yl)prop-2-yn-1-yl)amino)-6-(methoxy-d3)picolinamide] | 0.35 | 
